Experimental data published in PubChem BioAssay (NCI).
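Tested at 5 concentrations; 48 h exposure; 96-well plates; endpoints linearly interpolated, else capped at highest concentration. At the TGI there is no net growth.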

Legend:
Test in all cases: inhibition of tumour cell growth, NCI panel, 48 h
786-0 renal = system: 786-0 renal
A498 renal = system: A498 renal
A549 NSCLC = system: A549 NSCLC
ACHN renal = system: ACHN renal
BT-549 breast = system: BT-549 breast
CAKI-1 renal = system: CAKI-1 renal
CCRF-CEM leukemia = system: CCRF-CEM leukemia
COLO 205 colon = system: COLO 205 colon
DLD-1 colon = system: DLD-1 colon
DMS 114 small cell lung = system: DMS 114 small cell lung
DMS 273 small cell lung = system: DMS 273 small cell lung
DU-145 prostate = system: DU-145 prostate
EKVX NSCLC = system: EKVX NSCLC
HCC-2998 colon = system: HCC-2998 colon
HCT-116 colon = system: HCT-116 colon
HCT-15 colon = system: HCT-15 colon
HL-60(TB) leukemia = system: HL-60(TB) leukemia
HOP-18 NSCLC = system: HOP-18 NSCLC
HOP-62 NSCLC = system: HOP-62 NSCLC
HOP-92 NSCLC = system: HOP-92 NSCLC
HS 578T breast = system: HS 578T breast
HT29 colon = system: HT29 colon
IGROV1 ovarian = system: IGROV1 ovarian
K-562 leukemia = system: K-562 leukemia
KM12 colon = system: KM12 colon
KM20L2 colon = system: KM20L2 colon
LOX IMVI melanoma = system: LOX IMVI melanoma
LXFL 529 NSCLC = system: LXFL 529 NSCLC
M14 melanoma = system: M14 melanoma
M19-MEL melanoma = system: M19-MEL melanoma
MALME-3M melanoma = system: MALME-3M melanoma
MCF7 breast = system: MCF7 breast
MDA-MB-231 breast = system: MDA-MB-231 breast
MDA-MB-435 = system: MDA-MB-435
MDA-N = system: MDA-N
MOLT-4 leukemia = system: MOLT-4 leukemia
NCI-H226 lung = system: NCI-H226 lung
NCI-H23 lung = system: NCI-H23 lung
NCI-H460 lung = system: NCI-H460 lung
NCI-H522 lung = system: NCI-H522 lung
NCI/ADR-RES ovarian = system: NCI/ADR-RES ovarian
OVCAR-3 ovarian = system: OVCAR-3 ovarian
OVCAR-4 ovarian = system: OVCAR-4 ovarian
OVCAR-5 ovarian = system: OVCAR-5 ovarian
OVCAR-8 ovarian = system: OVCAR-8 ovarian
PC-3 prostate = system: PC-3 prostate
RPMI-8226 leukemia = system: RPMI-8226 leukemia
RXF 393 renal = system: RXF 393 renal
RXF-631 renal = system: RXF-631 renal
SF-268 CNS = system: SF-268 CNS
SF-295 CNS = system: SF-295 CNS
SF-539 CNS = system: SF-539 CNS
SK-MEL-2 melanoma = system: SK-MEL-2 melanoma
SK-MEL-28 melanoma = system: SK-MEL-28 melanoma
SK-MEL-5 melanoma = system: SK-MEL-5 melanoma
SK-OV-3 ovarian = system: SK-OV-3 ovarian
SN12C renal = system: SN12C renal
SNB-19 CNS = system: SNB-19 CNS
SNB-75 CNS = system: SNB-75 CNS
SNB-78 CNS = system: SNB-78 CNS
SR leukemia = system: SR leukemia
SW-620 colon = system: SW-620 colon
T-47D breast = system: T-47D breast
TK-10 renal = system: TK-10 renal
U251 CNS = system: U251 CNS
UACC-257 melanoma = system: UACC-257 melanoma
UACC-62 melanoma = system: UACC-62 melanoma
UO-31 renal = system: UO-31 renal
XF 498 CNS = system: XF 498 CNS

Work on CC(=O)OC1CC[C@@]2(C)C(CC[C@]3(C)C2CC=C2[C@@H]4C(C)[C@H](C)CCC4(C)CCC23C)[C@@]1(C)C(=O)O (some centres undefined) yielded a TGI (786-0 renal) of 52.9 µM, a TGI (A498 renal) of 37.2 µM and a TGI (A549 NSCLC) of 45.6 µM. The TGI (ACHN renal) was 36.8 µM, the TGI (BT-549 breast) was 49.8 µM and the TGI (CAKI-1 renal) was 35.1 µM. For the same molecule, the TGI (CCRF-CEM leukemia) was 66.3 µM, the TGI (COLO 205 colon) was 45 µM and the TGI (DLD-1 colon) was 46.4 µM. It also gave a TGI (DMS 114 small cell lung) of 39.6 µM, a TGI (DMS 273 small cell lung) of 46.8 µM and a TGI (DU-145 prostate) of 33.2 µM. It also gave a TGI (EKVX NSCLC) of 43.3 µM, a TGI (HCC-2998 colon) of 38.7 µM and a TGI (HCT-116 colon) of 30.8 µM. The TGI (HCT-15 colon) was 43.2 µM, the TGI (HL-60(TB) leukemia) was 63.5 µM and the TGI (HOP-18 NSCLC) was 28.8 µM. The TGI (HOP-62 NSCLC) was 43.1 µM, the TGI (HOP-92 NSCLC) was 49.9 µM and the TGI (HS 578T breast) was 64.9 µM. For the same molecule, the TGI (HT29 colon) was 47.4 µM, the TGI (IGROV1 ovarian) was 46.9 µM and the TGI (K-562 leukemia) was 86.9 µM. It also gave a TGI (KM12 colon) of 53.9 µM, a TGI (KM20L2 colon) of 29.4 µM and a TGI (LOX IMVI melanoma) of 51.7 µM. It also gave a TGI (LXFL 529 NSCLC) of 39.4 µM, a TGI (M14 melanoma) of 52.4 µM and a TGI (M19-MEL melanoma) of 51 µM. The TGI (MALME-3M melanoma) was 49 µM, the TGI (MCF7 breast) was 25.8 µM and the TGI (MDA-MB-231 breast) was 49.6 µM. The TGI (MDA-MB-435) was 40.6 µM, the TGI (MDA-N) was 42.3 µM and the TGI (MOLT-4 leukemia) was 69.6 µM. For the same molecule, the TGI (NCI-H226 lung) was 53.4 µM, the TGI (NCI-H23 lung) was 51.6 µM and the TGI (NCI-H460 lung) was 71.6 µM. The TGI (NCI-H522 lung) was 45.4 µM, the TGI (NCI/ADR-RES ovarian) was 45 µM and the TGI (OVCAR-3 ovarian) was 40.4 µM. It also gave a TGI (OVCAR-4 ovarian) of 66.7 µM, a TGI (OVCAR-5 ovarian) of 33.3 µM and a TGI (OVCAR-8 ovarian) of 70 µM. The TGI (PC-3 prostate) was 31.8 µM, the TGI (RPMI-8226 leukemia) was 64.8 µM and the TGI (RXF 393 renal) was 49.4 µM. The TGI (RXF-631 renal) was 68.6 µM, the TGI (SF-268 CNS) was 60.5 µM and the TGI (SF-295 CNS) was 35.5 µM. For the same molecule, the TGI (SF-539 CNS) was 51.8 µM, the TGI (SK-MEL-2 melanoma) was 50.2 µM and the TGI (SK-MEL-28 melanoma) was 52 µM. The TGI (SK-MEL-5 melanoma) was 35.5 µM, the TGI (SK-OV-3 ovarian) was 40.4 µM and the TGI (SN12C renal) was 53.2 µM. The TGI (SNB-19 CNS) was 53.1 µM, the TGI (SNB-75 CNS) was 35.8 µM and the TGI (SNB-78 CNS) was 65.6 µM. For the same molecule, the TGI (SR leukemia) was 70.6 µM, the TGI (SW-620 colon) was 55.5 µM and the TGI (T-47D breast) was 43.3 µM. It also gave a TGI (TK-10 renal) of 30.7 µM, a TGI (U251 CNS) of 58.2 µM and a TGI (UACC-257 melanoma) of 40.9 µM. It also gave a TGI (UACC-62 melanoma) of 35.3 µM, a TGI (UO-31 renal) of 39.9 µM and a TGI (XF 498 CNS) of 36.1 µM.
